Records with an inconclusive call do not appear. The calls were made as follows: active = survival T/C of 150% or more; inactive = T/C below 125% in these data.
System: Lewis lung carcinoma i.m., BDF1 mice, T/C %
Test: NCI In Vivo Anticancer Drug Screen. Data for tumor model Lewis Lung Carcinoma (intramuscular) in B6D2F1 (BDF1) mice
Conditions: endpoint: median survival time, schedule: Q02DX009 (ip), higher = longer survival
Summary of the method: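 Compound given to mice with transplantable tumours; survival or tumour size compared against the vehicle control group, reported as T divided by C.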

Measured: T/C

CO[C@H]1/C=C/O[C@@]2(C)Oc3c(C)c(O)c4c(O)c(c(/C=N/N5C(C)CN(Cc6ccccc6)CC5C)c(O)c4c3C2=O)NC(=O)/C(C)=C\C=C\[C@H](C)[C@H](O)[C@@H](C)[C@@H](O)[C@@H](C)[C@H](OC(C)=O)[C@@H]1C (stereo partly specified)
inactive: dose: 25.0 mg/kg/injection, vehicle: other 117 % of control | dose: 50.0 mg/kg/injection, vehicle: Klucel (hydroxypropylcellulose) (HPC) 114 % of control | dose: 50.0 mg/kg/injection, vehicle: other 107 % of control | dose: 200.0 mg/kg/injection, vehicle: Klucel (hydroxypropylcellulose) (HPC) 98 % of control | dose: 200.0 mg/kg/injection, vehicle: other 87 % of control | dose: 400.0 mg/kg/injection, vehicle: Klucel (hydroxypropylcellulose) (HPC) 98 % of control

— PubChem BioAssay AID272 (DTP/NCI, 2004)
